We go through 10 molecules from US12403137B2, “Compounds and methods of use” (Tango Therapeutics, Inc., priority 2019, dated 2025).

Test [1] deals with T1, PRMT5 (Homo sapiens, UniProt O14744).
T1 construct: purchased Viva (custom protein)
As to the kind of experiment: PRMT5 inhibition assay with no cofactor. Format: biochemical. The conditions noted are these: against PRMT5 with no cofactor; read-out: No Co-factor IC50.

For test [2], the system named is HAP1 MTAP-intact cell line. The test is described as follows: SDMA in-cell western assay, HAP1 MTAP-intact. Format: cell-based. The note with it: Homo sapiens. In short, it runs like this:
(§1)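 Symmetric dimethylarginine (SDMA) levels were measured by in-cell western in an isogenic HAP1 pair. One line expresses endogenous MTAP and the other is MTAP-null, with an IC50 derived in each.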

Test [3] deals with HAP1 MTAP-deleted cell line. The test is described as follows: SDMA in-cell western assay, HAP1 MTAP-deleted. Format: cell-based. The conditions noted are these: for IC50: Homo sapiens, HAP1 MTAP-deleted (MTAP-null) cell line; for MTAP Intact/Deleted Ratio: IC50 ratio HAP1 MTAP-intact / HAP1 MTAP-deleted, >=3 fold considered MTAP-selective. An outline of the steps:
as §1

In test [4] the target is T1, PRMT5. The test is described as follows: PRMT5 inhibition assay with MTA as cofactor. Format: biochemical. The note with it: for IC50: against PRMT5 with MTA as cofactor; for SAM/MTA Ratio: ratio of Ki in the presence of SAM to Ki in the presence of MTA, Ki=IC50/1.5 (SAM), Ki=IC50/13.5 (MTA). The source says: (§2) The Ki values can be calculated from the IC50 values as described in the Examples section. As detailed in the Examples section, for the assay performed in the presence of SAM, IC50=Ki×1.5 (Ki=IC50/1.5). For the assay performed in the presence of MTA, IC50=Ki×13.5 (Ki=IC50/13.5). Column 6 indicates the ratio between the Ki of compounds in the presence of SAM and the Ki of compounds in the presence of MTA

For test [5], the target named is T1, PRMT5. The test is described as follows: PRMT5 inhibition assay with SAM as cofactor. The note with it: against PRMT5 in the presence of SAM as cofactor. Format: biochemical.
Source text: as §2

Bounds are passed on as bounds.

T1 sequence (O14744 whole entry): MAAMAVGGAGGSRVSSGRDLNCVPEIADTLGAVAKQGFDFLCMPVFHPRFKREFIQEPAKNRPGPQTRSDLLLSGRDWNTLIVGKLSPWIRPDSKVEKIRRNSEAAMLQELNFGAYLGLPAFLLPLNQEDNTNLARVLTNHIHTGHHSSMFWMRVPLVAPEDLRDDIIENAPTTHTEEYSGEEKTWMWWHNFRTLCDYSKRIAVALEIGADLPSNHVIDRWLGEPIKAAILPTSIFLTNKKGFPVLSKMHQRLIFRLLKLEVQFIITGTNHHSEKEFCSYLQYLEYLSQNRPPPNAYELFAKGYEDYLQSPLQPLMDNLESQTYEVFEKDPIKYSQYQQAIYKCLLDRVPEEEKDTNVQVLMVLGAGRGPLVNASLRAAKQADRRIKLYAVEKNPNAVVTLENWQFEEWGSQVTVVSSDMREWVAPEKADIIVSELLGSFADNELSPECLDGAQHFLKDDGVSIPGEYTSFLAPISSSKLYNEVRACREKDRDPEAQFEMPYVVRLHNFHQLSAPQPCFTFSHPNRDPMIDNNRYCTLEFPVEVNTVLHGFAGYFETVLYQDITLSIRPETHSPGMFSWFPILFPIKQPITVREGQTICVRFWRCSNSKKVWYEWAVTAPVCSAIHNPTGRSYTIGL
T1 sequence (Q9BQA1 whole entry partner): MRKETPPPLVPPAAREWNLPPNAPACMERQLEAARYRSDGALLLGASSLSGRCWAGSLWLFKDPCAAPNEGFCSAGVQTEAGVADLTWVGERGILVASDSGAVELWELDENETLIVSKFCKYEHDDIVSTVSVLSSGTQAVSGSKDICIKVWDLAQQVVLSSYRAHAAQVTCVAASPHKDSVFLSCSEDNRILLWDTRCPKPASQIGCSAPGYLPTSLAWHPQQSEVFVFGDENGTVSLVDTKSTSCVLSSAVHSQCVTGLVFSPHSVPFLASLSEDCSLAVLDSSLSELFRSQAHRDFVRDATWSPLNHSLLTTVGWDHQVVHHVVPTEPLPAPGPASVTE

The term IC50 denotes the concentration at which inhibition is half-maximal. For `Cc1ncoc1COc1ccc2c(c1)CN[C@H]([C@H](O)CNC(=O)c1cccc(NC3CCC3)c1)C2` [Compound 28, 3-(cyclobutylamino)-N—((R)-2-hydroxy-2-((S)-7-((4-methyloxazol-5-yl)methoxy)-1,2,3,4-tetrahydroisoquinolin-3-yl)ethyl)benzamide], the 50% inhibitory concentration (IC50) in test [1] was 50 to 500 nM; in test [2], 1 to 10 µM; in test [3], less than 1000 nM; in test [4], less than 50 nM; in test [5] it was 50 to 500 nM. Besides, in test [3], the “MTAP Intact/Deleted Ratio” value was “A* (an IC50 ratio greater than or equal to 10 fold between the IC50 in the HAP1 MTAP-intact cell line and the HAP1 MTAP-deleted cell line)”. Also, the “SAM/MTA Ratio” value in test [4] was “A (a Ki ratio greater than or equal to 10 fold between the Ki in the presence of SAM and the Ki in the presence of MTA)”.
On to `CC(=O)N1CCN(c2cc(C(=O)NC[C@@H](O)[C@@H]3Cc4ccc(OCc5ocnc5C)cc4CN3)cc(NC3CCC3)n2)CC1` [Compound 29, 2-(4-acetylpiperazin-1-yl)-6-(cyclobutylamino)-N—((R)-2-hydroxy-2-((S)-7-((4-methyloxazol-5-yl)methoxy)-1,2,3,4-tetrahydroisoquinolin-3-yl)ethyl)isonicotinamide], for which the IC50 is 50 to 500 nM in test [1]; 1 to 10 µM in test [2]; less than 1000 nM in test [3]; less than 50 nM in test [4]; 50 to 500 nM in test [5]. Besides, in test [3], the “MTAP Intact/Deleted Ratio” value is “A* (an IC50 ratio greater than or equal to 10 fold between the IC50 in the HAP1 MTAP-intact cell line and the HAP1 MTAP-deleted cell line)”. In addition, in test [4], the “SAM/MTA Ratio” value is “A (a Ki ratio greater than or equal to 10 fold between the Ki in the presence of SAM and the Ki in the presence of MTA)”.
Take `Cc1ncoc1COc1ccc2c(c1)CN[C@H]([C@H](O)CNC(=O)c1cc(NC3CCC3)nc(N3CCN(C(C)C)CC3)c1)C2` [Compound 30, 2-(cyclobutylamino)-N—((R)-2-hydroxy-2-((S)-7-((4-methyloxazol-5-yl)methoxy)-1,2,3,4-tetrahydroisoquinolin-3-yl)ethyl)-6-(4-isopropylpiperazin-1-yl)isonicotinamide]: the IC50 is 50 to 500 nM in test [1]; no less than 10 µM in test [2]; no less than 10000 nM in test [3]; less than 50 nM in test [4]; 50 to 500 nM in test [5]. Also, the “MTAP Intact/Deleted Ratio” value in test [3] was “C* (an IC50 ratio of less than 3 fold between the IC50 in the HAP1 MTAP-intact cell line and the HAP1 MTAP-deleted cell line)”. For the same molecule, in test [4], the “SAM/MTA Ratio” value is “A (a Ki ratio greater than or equal to 10 fold between the Ki in the presence of SAM and the Ki in the presence of MTA)”.
`Cc1ncoc1COc1ccc2c(c1)CN[C@H]([C@H](O)CNC(=O)c1cc(NC3CCC3)nc(N3CCCCC3)c1)C2` [Compound 31, 2-(cyclobutylamino)-N—((R)-2-hydroxy-2-((S)-7-((4-methyloxazol-5-yl)methoxy)-1,2,3,4-tetrahydroisoquinolin-3-yl)ethyl)-6-(piperidin-1-yl)isonicotinamide]: the IC50 was 50 to 500 nM in test [1]; less than 1 µM in test [2]; less than 1000 nM in test [3]; 50 to 500 nM in test [4]; 50 to 500 nM in test [5]. Further, the “MTAP Intact/Deleted Ratio” value in test [3] is “C* (an IC50 ratio of less than 3 fold between the IC50 in the HAP1 MTAP-intact cell line and the HAP1 MTAP-deleted cell line)”. Also, in test [4], the “SAM/MTA Ratio” value was “A (a Ki ratio greater than or equal to 10 fold between the Ki in the presence of SAM and the Ki in the presence of MTA)”.
Regarding `Cc1ncoc1COc1ccc2c(c1)CN[C@H]([C@H](O)CNC(=O)c1cc(NC3CCC3)ncn1)C2` [Compound 32, 6-(cyclobutylamino)-N—((R)-2-hydroxy-2-((S)-7-((4-methyloxazol-5-yl)methoxy)-1,2,3,4-tetrahydroisoquinolin-3-yl)ethyl)pyrimidine-4-carboxamide], the IC50 in test [1] is 500 to 5000 nM; in test [2], 1 to 10 µM; in test [3], less than 1000 nM; in test [4], less than 50 nM; in test [5] it was 50 to 500 nM. The “MTAP Intact/Deleted Ratio” value in test [3] was “B* (an IC50 ratio greater than or equal to 3 fold but lower than 10 fold between the IC50 in the HAP1 MTAP-intact cell line and the HAP1 MTAP-deleted cell line)”. Further, in test [4], the “SAM/MTA Ratio” value was “A (a Ki ratio greater than or equal to 10 fold between the Ki in the presence of SAM and the Ki in the presence of MTA)”.
Consider `COCCN(C)c1cc(C(=O)NC[C@@H](O)[C@@H]2Cc3ccc(OCc4ocnc4C)cc3CN2)cc(NC2CCC2)n1` [Compound 33, 2-(cyclobutylamino)-N—((R)-2-hydroxy-2-((S)-7-((4-methyloxazol-5-yl)methoxy)-1,2,3,4-tetrahydroisoquinolin-3-yl)ethyl)-6-((2-methoxyethyl)(methyl)amino)isonicotinamide], for which the IC50 was 50 to 500 nM in test [1]; 1 to 10 µM in test [2]; less than 1000 nM in test [3]; 50 to 500 nM in test [4]; 50 to 500 nM in test [5]. Besides, in test [3], the “MTAP Intact/Deleted Ratio” value is “B* (an IC50 ratio greater than or equal to 3 fold but lower than 10 fold between the IC50 in the HAP1 MTAP-intact cell line and the HAP1 MTAP-deleted cell line)”. The “SAM/MTA Ratio” value in test [4] is “A (a Ki ratio greater than or equal to 10 fold between the Ki in the presence of SAM and the Ki in the presence of MTA)”.
Take `Cc1ncoc1COc1ccc2c(c1)CN[C@H]([C@H](O)CNC(=O)c1ccnc(Nc3cccnc3)c1)C2` [Compound 34, N—((R)-2-hydroxy-2-((S)-7-((4-methyloxazol-5-yl)methoxy)-1,2,3,4-tetrahydroisoquinolin-3-yl)ethyl)-2-(pyridin-3-ylamino)isonicotinamide]: the IC50 was 50 to 500 nM in test [1]; no less than 10 µM in test [2]; 1000 to 10000 nM in test [3]; less than 50 nM in test [4]; 50 to 500 nM in test [5]. Besides, in test [3], the “MTAP Intact/Deleted Ratio” value was “B* (an IC50 ratio greater than or equal to 3 fold but lower than 10 fold between the IC50 in the HAP1 MTAP-intact cell line and the HAP1 MTAP-deleted cell line)”. The “SAM/MTA Ratio” value in test [4] was “A (a Ki ratio greater than or equal to 10 fold between the Ki in the presence of SAM and the Ki in the presence of MTA)”.
For the molecule `Cc1ncoc1COc1ccc2c(c1)CN[C@H]([C@H](O)CNC(=O)c1cc(NC3CCC3)ccn1)C2` [Compound 35, 4-(cyclobutylamino)-N—((R)-2-hydroxy-2-((S)-7-((4-methyloxazol-5-yl)methoxy)-1,2,3,4-tetrahydroisoquinolin-3-yl)ethyl)picolinamide], the IC50 in test [1] is 500 to 5000 nM; in test [2], 1 to 10 µM; in test [3] it was less than 1000 nM; in test [4], less than 50 nM; in test [5] it was 50 to 500 nM. In addition, the “MTAP Intact/Deleted Ratio” value in test [3] was “A* (an IC50 ratio greater than or equal to 10 fold between the IC50 in the HAP1 MTAP-intact cell line and the HAP1 MTAP-deleted cell line)”. Moreover, the “SAM/MTA Ratio” value in test [4] is “A (a Ki ratio greater than or equal to 10 fold between the Ki in the presence of SAM and the Ki in the presence of MTA)”.
With `COc1cnc(NC2CCC2)cc1C(=O)NC[C@@H](O)[C@@H]1Cc2ccc(OCc3ocnc3C)cc2CN1` [Compound 36, 2-(cyclobutylamino)-N—((R)-2-hydroxy-2-((S)-7-((4-methyloxazol-5-yl)methoxy)-1,2,3,4-tetrahydroisoquinolin-3-yl)ethyl)-5-methoxyisonicotinamide], the IC50 is 500 to 5000 nM in test [1]; 1 to 10 µM in test [2]; less than 1000 nM in test [3]; less than 50 nM in test [4]; 50 to 500 nM in test [5]. The “MTAP Intact/Deleted Ratio” value in test [3] is “B* (an IC50 ratio greater than or equal to 3 fold but lower than 10 fold between the IC50 in the HAP1 MTAP-intact cell line and the HAP1 MTAP-deleted cell line)”. The “SAM/MTA Ratio” value in test [4] was “A (a Ki ratio greater than or equal to 10 fold between the Ki in the presence of SAM and the Ki in the presence of MTA)”.
Consider `CCC(=O)N1CCN(c2cc(C(=O)NC[C@@H](O)[C@@H]3Cc4ccc(OCc5ocnc5C)cc4CN3)cc(NC3CCC3)n2)CC1` [Compound 39, 2-(cyclobutylamino)-N—((R)-2-hydroxy-2-((S)-7-((4-methyloxazol-5-yl)methoxy)-1,2,3,4-tetrahydroisoquinolin-3-yl)ethyl)-6-(4-propionylpiperazin-1-yl)isonicotinamide], for which the IC50 in test [1] was 50 to 500 nM; in test [2] it was 1 to 10 µM; in test [3] it was less than 1000 nM; in test [4] it was less than 50 nM; in test [5] it was 50 to 500 nM. In test [3], the “MTAP Intact/Deleted Ratio” value was “A* (an IC50 ratio greater than or equal to 10 fold between the IC50 in the HAP1 MTAP-intact cell line and the HAP1 MTAP-deleted cell line)”. Besides, the “SAM/MTA Ratio” value in test [4] was “A (a Ki ratio greater than or equal to 10 fold between the Ki in the presence of SAM and the Ki in the presence of MTA)”.
